This experiment concerns 439559-082-T-J2-PDC complex spheroid growth. The experiment is described as follows: Anticancer human tumor 439559-082-T-J2-PDC patient-derived colon adenocarcinoma cell line growth inhibition [Asc]. Conditions: for viability, T/C: stronger effect = lower value. The procedure:
Multicellular complex tumor spheroid response to apoptosis pathway targeting inhibitors Alrizomadlin, Pelcitoclax, and Dasminapant in combination with a variety of drugs and investigational agents in selected tumor cell lines
The MDM2 inhibitor alrizomadlin, the Bcl-2/Bcl-xL inhibitor pelcitoclax, and the IAPs inhibitor dasminapant were evaluated both individually and in combination with standard of care and investigational anticancer small molecules within a complex spheroid model of solid tumors. . Complex spheroids include a stromal component modeled by human endothelial cells (HUVEC) and fibroblasts modeled by human mesenchymal stem cells (MSCs). The concentration ranges selected for each drug and investigational agent were based upon clinically achievable concentrations if the clinical Cmax of the agent was known.
Compounds. The drugs and investigational agents: alrizomadlin (APG-115; NSC831270), pelcitoclax (APG-1252; NSC835773), dasminapant (APG-1387;NSC834197), TAK-243 (NSC785004), copanlisib (NSC809693), olaparib (NSC753686), talazoparib (NSC767125), cobimetinib (NSC 768068), eltanexor (KPT-8602, NSC 794443), abemaciclib (NSC 768073), sotorasib (NSC818433), adagrasib (NSC 831453), MRTX-1133 (NSC 836407), Iadademestat (ORY1001, NSC 806812), and RMC-4630 (NSC839698), were obtained from the NCI Developmental Therapeutics Program Chemical Repository. The FDA-approved anticancer drug set is available from the Developmental Therapeutics Program at https://dtp.cancer.gov/organization/dscb/obtaining/available plates.htm. […] The stock solutions were prepared in dimethyl sulfoxide (DMSO, Sigma-Aldrich, St. Louis, MO, cat. D2650) at 800-fold the tested concentration and stored at -70 degrees C prior to their use. All drugs and investigational agents were tested over a range starting from a high concentration at or near the clinical Cmax and decreasing in half-log increments. If the clinical Cmax for an agent had not been determined, the highest concentration tested was 10 microM.
The patient-derived cancer (PDC) cell lines include five colon adenocarcinomas: 186277-243-T-J2-PDC, 616215-338-R-J1-PDC, 439559-082-T-J2-PDC, 463943-066-T-J2-PDC, and 519858-162-T-J1-PDC; three pancreatic carcinomas: 323965-272-R-J2-PDC, 521955-158-R6-J3-PDC, and 521955-158-R2-J5-PDC; two uterine sarcomas: 327498-152-R-J2-PDC and 993429-296-R-J1-PDC; two rhabdomyosarcomas: 755483-174-R-J1-PDC and 772245-204-R-J1-PDC; two soft tissue sarcomas: 126254-015-R-J1-PDC and 494315-158-R-J1-PDC; two malignant fibrous histiocytomas: 317291-083-R-J1-PDC and 596521-263-R-J1-PDC; two breast carcinomas: 171881-019-R-J1-PDC and 885512-296-R-J2-PDC; and one ovarian carcinoma: 6556581-035-R-J-PDC were obtained from the NCI PDMR, (https://pdmr.cancer.gov). The established cell lines HSSY-2 synovial sarcoma (RRID:CVCL 8719), SYO-1 synovial sarcoma (RRID:CVCL_7146), MPNST malignant peripheral neural sheath tumor were obtained from the Sloan Kettering Institute. The following established cell lines were purchased from the American Type Culture Collection (ATCC, Manassas, VA), Sor the received from the NCI repository:, PANC-1 pancreatic carcinoma (CRL-1469, RRID:CVCL_0480), OVCAR-5 ovarian carcinoma (RRID:CVCL_1628), OVCAR-8 ovarian carcinoma (RRID:CVCL_1629), , MCF-7 breast carcinoma (CRL-12584, RRID:CVCL_0031), MDA-MB-231 breast carcinoma (CRL-12532, RRID:CVCL_0062), NCI-H1876 small cell lung carcinoma (CRL-5902, RRID:CVCL_1503), NCI-H510A small cell lung carcinoma (HTB-184, RRID:CVCL_1565), NCI-H1417 (CRL-5869, RRID:CVCL_1469), and NCI-H196 small cell lung carcinoma (CRL-5823, RRID:CVCL_1509). Dr. Peter Houghton (Greehey Children's Cancer Research Institute, University of Texas Health Science Center, San Antonio, TX) provided Rh-18 rhabdomyosarcoma (RRID:CVCL_1659). Pooled donor human umbilical vein endothelial cells (HUVEC, Lonza, cat. CC-2519) and human mesenchymal stem cells (hMSC, Lonza, cat. PT-2501) were purchased from Lonza (Walkersville, MD).
Cell Culture. […]

The mark [1] stands for this setting: compound alone, run of 10/11/2022.

The structures appear in SMILES notation. Values joined by “and” are separate entries in the source; they are usually repeats but may differ in a detail not shown here. Equal entries are not always repeated. Where only a bound is given, the exact number is not on record here.
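Note: spheroids exposed to agents for 7 days starting day 3 after seeding.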
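Throughout, for viability, T/C: percent of DMSO vehicle control viability with 100% = vehicle.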

For `C#Cc1c(F)ccc2cc(O)cc(-c3ncc4c(N5CC6CCC(C5)N6)nc(OCC56CCCN5CC(F)C6)nc4c3F)c12` (stereo not drawn), the viability, T/C reads like this: (compound 0.0316 µM) 95.9% and 87.4% and 92.5%; (compound 0.1 µM) 77.6% and 80.5% and 82.3%; (compound 0.316 µM) 68.5% and 59.4% and 65.4%; (compound 1 µM) 64.9% and 53.9% and 55.5%; (compound 3.16 µM) 55.5% and 55.7% and 51.2%; (compound 10 µM) 41% and 37.7% and 39.6%. The IC50 (curve of compound) is 4.3 µM and 2.36 µM and 2.43 µM.
Regarding `C=C(F)C(=O)N1CCN(c2nc(OCC3CCCN3C)nc3c2CCN(c2cccc4cccc(Cl)c24)C3)CC1CC#N` (stereo not drawn), the viability, T/C was 91.3% and 104% and 106% (compound 0.0316 µM); 90% and 103% and 109% (compound 0.1 µM); 90.5% and 97.4% and 104% (compound 0.316 µM); 96.6% and 97.8% and 102% (compound 1 µM); 102% and 86.9% and 95% (compound 3.16 µM); 7.1% and 14.9% and 23.5% (compound 10 µM). The IC50 (curve of compound) was 5.67 µM and 5.69 µM and 6.54 µM.
In the case of `C=CC(=O)N1CCN(c2nc(=O)n(-c3c(C)ccnc3C(C)C)c3nc(-c4c(O)cccc4F)c(F)cc23)C(C)C1` (stereo not drawn), the viability, T/C by setting is: (compound 0.0316 µM) 96.5% and 102% (2×); (compound 0.1 µM) 114% and 106% and 101%; (compound 0.316 µM) 103% and 102% and 108%; (compound 1 µM) 104% and 106% and 114%; (compound 3.16 µM) 108% and 106% and 92.2%; (compound 10 µM) 103% (2×) and 101%. In addition, the IC50 (curve of compound) was more than 10 µM.
For the compound `CCN1C(C(=O)NC23CCC(C(=O)O)(CC2)CC3)C(c2cccc(Cl)c2F)C2(C(=O)Nc3cc(Cl)ccc32)C12CCCCC2` (stereo not drawn), the viability, T/C (compound 0.00949 µM) was 105% and 100%; the viability, T/C (compound 0.03 µM) is 101% [middle of 15 runs]; the viability, T/C (compound 0.0949 µM) was 99.9% [middle of 15 runs]; the viability, T/C (compound 0.3 µM) is 96.8% [middle of 15 runs]; the viability, T/C (compound 0.949 µM) was 102% [middle of 15 runs]; the viability, T/C (compound 3 µM) was 92.1% [middle of 15 runs]. The concentration for half-maximal inhibition (IC50) by setting is: under setting [1], more than 3 µM; (curve of compound) more than 3 µM.
In the case of `CCN1CCN(Cc2ccc(Nc3ncc(F)c(-c4cc(F)c5nc(C)n(C(C)C)c5c4)n3)nc2)CC1`, the viability, T/C is, setting by setting: (compound 0.00316 µM) 105% and 98.4% and 99.2%; (compound 0.01 µM) 111% and 104% and 97.7%; (compound 0.0316 µM) 89.4% and 96.5% and 95.8%; (compound 0.1 µM) 92% and 89.7% and 89.2%; (compound 0.316 µM) 93.1% and 92.7% and 81.8%; (compound 1 µM) 84.8% and 84.4% and 70.8%. Further, the 50% inhibitory concentration (IC50) (curve of compound) was more than 1 µM.
With `CNC(C)C(=O)NC1CN(S(=O)(=O)c2cccc(S(=O)(=O)N3CCC4CCC(C(=O)NC(c5ccccc5)c5ccccc5)N4C(=O)C(NC(=O)C(C)NC)C3)c2)CCC2CCC(C(=O)NC(c3ccccc3)c3ccccc3)N2C1=O` (stereo not drawn), the viability, T/C reads like this: (compound 0.01 µM) 103% [middle of 9 runs]; (compound 0.0316 µM) 98.1% [middle of 8 runs]; (compound 0.1 µM) 99.7% [middle of 9 runs]; (compound 0.316 µM) 98.3% [middle of 9 runs]; (compound 1 µM) 88.1% [middle of 9 runs]. Also, the IC50 runs as follows: (compound alone, run of 11/15/2022) more than 1 µM; (curve of compound) more than 1 µM.
As to `COc1c(OCCCN2CCOCC2)ccc2c3n(c(=NC(=O)c4cnc(N)nc4)nc12)CCN3`, the viability, T/C reads like this: (compound 0.00316 µM) 100% and 101% and 93.5%; (compound 0.01 µM) 104% (2×) and 90.9%; (compound 0.0316 µM) 81.6% and 87.4% and 102%; (compound 0.1 µM) 78.7% and 76.9% and 72.9%; (compound 0.316 µM) 80% and 71.6% and 75.5%; (compound 1 µM) 58.6% and 59% and 69.4%. The IC50 (curve of compound) is more than 1 µM.
As to `Cc1c(S(C)(=O)=O)c(-c2cc(F)cc(N3CCN(c4ccc(NS(=O)(=O)c5ccc(NC(CCN6CCC(C(=O)OCCCP(=O)(O)O)CC6)CSc6ccccc6)c(S(=O)(=O)C(F)(F)F)c5)cc4)CC3)c2)c(-c2ccc(Cl)cc2)n1C(C)C` (stereo not drawn), the viability, T/C reads like this: (compound 0.1 µM) 97.4% [middle of 14 runs]; (compound 0.316 µM) 97.4% [middle of 14 runs]; (compound 1 µM) 91% [middle of 14 runs]; (compound 3.16 µM) 87.2% [middle of 14 runs]; (compound 10 µM) 74.9% [middle of 14 runs]. Also, under setting [1], the IC50 is more than 10 µM.
With `Cc1nc(N2CCC3(CC2)COC(C)C3N)c(CO)nc1Sc1ccnc(N)c1Cl` (stereo not drawn), the viability, T/C (compound 0.00949 µM) was 89.8% and 104% and 107%; the viability, T/C (compound 0.03 µM) is 93.7% and 111% and 108%; the viability, T/C (compound 0.0949 µM) is 102% and 99.4% and 101%; the viability, T/C (compound 0.3 µM) is 110% and 91.8% and 99.9%; the viability, T/C (compound 0.949 µM) is 99.8% and 94.1% and 92%; the viability, T/C (compound 3 µM) is 72.1% and 79.7% and 81.7%. Moreover, the IC50 (curve of compound) is more than 3 µM.
Turning to `Cn1ncnc1[C@H]1c2n[nH]c(=O)c3cc(F)cc(c23)N[C@@H]1c1ccc(F)cc1`, the viability, T/C is, setting by setting: (compound 0.000316 µM) 104% and 97.5% and 103%; (compound 0.001 µM) 108% and 97.8% and 112%; (compound 0.00316 µM) 97.6% and 103% and 92%; (compound 0.01 µM) 95.5% and 95.2% and 97.6%; (compound 0.0316 µM) 102% and 105% and 107%; (compound 0.1 µM) 98.1% and 92.3% and 98.5%. The IC50 (curve of compound) was more than 0.1 µM.
For the compound `NC(=O)C(=Cn1cnc(-c2cc(C(F)(F)F)cc(C(F)(F)F)c2)n1)c1cncnc1`, the viability, T/C runs as follows: (compound 0.000949 µM) 111% and 110% and 105%; (compound 0.003 µM) 105% and 102% and 86.8%; (compound 0.00949 µM) 101% and 99% and 94.4%; (compound 0.03 µM) 101% and 91.7% and 89.8%; (compound 0.0949 µM) 92.7% and 89.7% and 90.7%; (compound 0.3 µM) 82% and 86.4% and 78.2%. In addition, for the setting “curve of compound”, the IC50 was more than 0.3 µM.
`NC1CCC(NC2CC2c2ccccc2)CC1` (stereo not drawn): the viability, T/C was 106% and 107% and 103% (compound 0.000316 µM); 119% and 117% and 92.5% (compound 0.001 µM); 112% and 106% and 107% (compound 0.00316 µM); 114% and 108% and 92.8% (compound 0.01 µM); 109% and 103% and 96% (compound 0.0316 µM); 112% and 106% and 95.2% (compound 0.1 µM). Where the note is “curve of compound”, the IC50 is more than 0.1 µM.
Turning to `O=C(c1cc(Cc2n[nH]c(=O)c3ccccc23)ccc1F)N1CCN(C(=O)C2CC2)CC1`, the viability, T/C is, setting by setting: (compound 0.0316 µM) 98.8% and 105% and 96.8%; (compound 0.1 µM) 111% and 109% and 90.9%; (compound 0.316 µM) 99.9% and 95% and 96.8%; (compound 1 µM) 101% and 97.8% and 111%; (compound 3.16 µM) 105% and 104% and 106%; (compound 10 µM) 102% and 100% and 83.9%. Also, where the note is “curve of compound”, the half-maximal inhibitory concentration (IC50) is more than 10 µM.
Turning to `O=C(c1ccc(F)c(F)c1Nc1ccc(I)cc1F)N1CC(O)([C@@H]2CCCCN2)C1`, the viability, T/C runs as follows: (compound 0.00316 µM) 101% and 106% (2×); (compound 0.01 µM) 95.1% and 106% and 95.4%; (compound 0.0316 µM) 96.9% and 81.6% and 88.7%; (compound 0.1 µM) 63.6% and 60.9% and 69.5%; (compound 0.316 µM) 58% and 50.6% and 49.3%; (compound 1 µM) 13.8% and 24.2% and 28.6%. In addition, for the setting “curve of compound”, the IC50 was 0.334 µM and 0.24 µM and 0.307 µM.

For the origin of these results see PubChem BioAssay AID1963423 (Molecular Pharmacology Branch, DTP, NCI, 2024).
